From patent US20260283966A1, “PROTEIN PARTICLES AND METHODS OF MAKING AND USING THE SAME” (Dairy Management Inc., priority 2023, published 2026)

Test: ABTS radical scavenging capacity
Type: biochemical
Conditions: 0.05 mg mL^−1, all treatments
Procedure: ABTS radical scavenging capacity was measured according to the previously published protocol with some modifications (Dong et al., 2016). The modifications are as follow: samples were dissolved in phosphate buffer (pH 7.4) to a concentration of 0.05 mg mL^−1. Next, a 200 μl aliquot of the sample was mixed with 20 μl of the ABTS working solution and the mixture was stored in dark for 20 min at room temperature (~25° C.).

With N[C@@H](Cc1c[nH]c2ccccc12)C(=O)O [Trp, L-Tryptophan] the “relative ABTS radical scavenging capacity” value was “strong relative ABTS radical scavenging capacity and was not influenced by treatments”.
